# Results as given in patent US9012402B1, “Gel for topical delivery of NSAIDs to provide relief of musculoskeletal pain and methods for its preparation” (priority 2014, dated 2015).
# How the values were obtained:
# [1] = topical, average of seven clinical studies; cited from earlier work
# [2] = cited from earlier work
# [3] = Fraction of drug unionized at a given pH; format: physicochemical
fraction unionized ([3]; at pH 3.5),fraction unionized ([3]; at pH 6.0),fraction in the unionized form ([3]; pH of 5 or less),fraction in unionized form ([3]; pH of 6.5),SMILES,study participants who experienced relief of acute pain [1],Log P (octanol: water) [2]
–,–,–,–,"CC(C(=O)O)c1cccc(C(=O)c2ccccc2)c1 (stereo not shown) [Ketoprofen, 2-(3-benzoylphenyl)-propionic acid]",73%,2.68
–,–,–,–,O=C(O)Cc1ccccc1Nc1c(Cl)cccc1Cl [diclofenac],52%,–
88.8%,2.45%,> 20%,0.79%,CC(C)Cc1ccc(C(C)C(=O)O)cc1 (stereo not shown) [ibuprofen],–,–
